# Measurements taken from PMC11288129, “Diversely evolved xibalbin variants from remipede venom inhibit potassium channels and activate PKA-II and Erk1/2 signaling” (BMC Biology, 2024).
# “Also recorded” adds a separate entry of the source. Positions of bridges follow the written chain, without caps; N, C: chain ends. No end group written: not given here.
# Key:
# rKv4.2 = experiment: TEVC inhibition, Kv4.2; type: cell-based, rat; design: unit not given here; conditions: 1 µM
# Excerpt: (§1) For the expression of Kv channels rat Kv1.1 (GenBank accession number: NM_173095 [88, 89]), rKv1.2 (NM_012970 [90, 91]), human Kv1.3 (NM_002232 [92, 93]), rKv1.4 (NM_012971 [94, 95]), rKv1.6 (NM_023954 [96, 97]), hKv2.1 (NM_004975 [98, 99]), hKv3.1 (NM_004976 [100, 101]), rKv4.2 (NM_031739 [102, 103]), hKv10.1 (NM_172362 [104, 105]), hERG1 [Kv11.1, (NM_000238 [106, 107])], and Shaker IR [from Drosophila melanogaster, (NM_167595 [108, 109])], Nav channels [rNav1.2 (NM_012647 [42, 110]), rNav1.4 (NM_013178 [111, 112]), hNav1.5 (NM_198056 [113, 114]), mNav1.6 (NM_001077499 [115, 116]), BgNav [from Blattella germanica, (DQ466887 [117, 118])] and the auxiliary subunits rβ1 (NM_001271045 [119, 120]), hβ1 (NM_001037 [121, 122]), and TipE [from D. melanogaster, (NM_079196 [109, 123])], and Cav channels hCav3.1 [124, 125], hCav3.2 [126, 127], and hCav3.3 [128, 129] in Xenopus oocytes, the linearized plasmids were transcribed using the T7 or SP6 mMESSAGEmMACHINE transcription kit (Ambion, Austin, TX, USA). Mature female animals were purchased from Nasco (Fort Atkinson, USA) and were housed in the Aquatic Facility (KU Leuven) in compliance with the regulations of the European Union (EU) concerning the welfare of laboratory animals as declared in Directive 2010/63/EU. The use of X. laevis oocytes was approved by the Animal Ethics Committee of the KU Leuven with the license number P186/2019. Stage V–VI oocytes were collected from anesthetized female X. laevis frog as previously described, with the frogs anesthetized by placement in 0.1% tricaine solution (amino benzoic acid ethyl ester; Merck, USA). Oocyte microinjection was performed using a microinjector (Drummond Scientifc®, USA), with a programmed cRNA injection volume of 4—50 nL, depending on the channel subtype. The oocytes were incubated in ND96 solution (96 mM NaCl, 2 mM KCl, 1.8 mM CaCl2, 2 mM MgCl2, and 5 mM HEPES, pH 7.4), supplemented with 50 mg/l gentamicin sulfate.
# (§2) Electrophysiological measurements were performed at room temperature (18–22 °C) using the two-electrode voltage clamp (TEVC) technique. Data were obtained using a GeneClamp 500 amplifier (Axon Instruments, USA), and Clampex9 software (Axon Instruments), responsible for data acquisition and storage. Glass micropipettes were produced using glass capillaries (borosilicate WPI 1B120-6) and drawn in a WPI (World Precision Instruments, USA) manual stretcher. The bath and perfusion solutions were either the previously described ND96 (Nav and Kv channels) or calcium-free ND96 supplemented with 10 mM BaCl2 (Cav channels).
# (§3) Whole-cell currents of oocytes were recorded 1 to 3 days after injection. Current and voltage electrodes were filled with 3 M KCl and their resistance was adjusted from 0.7 to 2.0 MΩ. Currents were sampled at 20 kHz (Nav channels) and 10 kHz (Kv and Cav channels) and filtered using a four-pole Bessel low-pass Bessel filter, at 1 kHz for sodium, and […] for potassium and calcium, except for the hERG ion channel, in which the currents were filtered at 1 kHz. Leak subtraction was performed using a -P/4 protocol. Kv1.x currents were evoked by 500 ms depolarizations to 0 mV followed by a 500-ms pulse to − 50 mV, from a holding potential of − 90 mV. Kv2.1, Kv3.1, and Kv4.2 currents were elicited by 500 ms pulses to + 20 mV from a holding potential of − 90 mV. Current traces of Kv10.1 were elicited by 2 s depolarization to 0 mV, from a holding potential of − 90 mV. Current traces of hERG1 channel were elicited by applying a + 40 mV prepulse for 2 s followed by a step of − 120 mV for 2 s. Sodium current traces were evoked by a 100 ms depolarization to 0 mV, from a holding potential of − 90 mV. The current–voltage (IV) relationships were determined by 100-ms step depolarizations between − 90 and + 40 mV, using 5 mV increments. […]
# rKv1.6 = experiment: TEVC inhibition, Kv1.6; type: cell-based, rat; conditions: 1 µM
# Excerpt: as §1, §2, §3
# hCav3.3 = experiment: TEVC inhibition, Cav3.3; type: cell-based, human; design: unit not given here; conditions: 1 µM
# Excerpt: as §1, §2, §3
# [1] = system: voltage-gated potassium channels (Kvs); experiment: TEVC on panel of voltage-gated potassium channels; type: cell-based; conditions: 1 µM
# Excerpt: (§4) For the expression of Kv channels rat Kv1.1 (GenBank accession number: NM_173095 [88, 89]), rKv1.2 (NM_012970 [90, 91]), human Kv1.3 (NM_002232 [92, 93]), rKv1.4 (NM_012971 [94, 95]), rKv1.6 (NM_023954 [96, 97]), hKv2.1 (NM_004975 [98, 99]), hKv3.1 (NM_004976 [100, 101]), rKv4.2 (NM_031739 [102, 103]), hKv10.1 (NM_172362 [104, 105]), hERG1 [Kv11.1, (NM_000238 [106, 107])], and Shaker IR [from Drosophila melanogaster, (NM_167595 [108, 109])], Nav channels [rNav1.2 (NM_012647 [42, 110]), rNav1.4 (NM_013178 [111, 112]), hNav1.5 (NM_198056 [113, 114]), mNav1.6 (NM_001077499 [115, 116]), BgNav [from Blattella germanica, (DQ466887 [117, 118])] and the auxiliary subunits rβ1 (NM_001271045 [119, 120]), hβ1 (NM_001037 [121, 122]), and TipE [from D. melanogaster, (NM_079196 [109, 123])], and Cav channels hCav3.1 [124, 125], hCav3.2 [126, 127], and hCav3.3 [128, 129] in Xenopus oocytes, the linearized plasmids were transcribed using the T7 or SP6 mMESSAGEmMACHINE transcription kit (Ambion, Austin, TX, USA). […]
# (§5) Whole-cell currents of oocytes were recorded 1 to 3 days after injection. […] The current–voltage (IV) relationships were determined by 100-ms step depolarizations between − 90 and + 40 mV, using 5 mV increments. […]
# hERG1 (Kv11.1) = experiment: TEVC inhibition, Kv11.1 (hERG1); type: cell-based; conditions: human, Xenopus laevis oocytes expressing hERG1 (Kv11.1), pH 7.4, replicate 1
# Excerpt: as §4, §5
# hCav3.1 = experiment: TEVC inhibition, Cav3.1; type: cell-based, human; design: unit not given here; conditions: 1 µM
# Excerpt: as §1, §2, §3
# rKv1.4 = experiment: TEVC inhibition, Kv1.4; type: cell-based, rat; design: unit not given here; conditions: 1 µM
# Excerpt: as §1, §2, §3
# BgNav = experiment: TEVC inhibition, BgNav; type: cell-based, Blattella germanica; design: Inhibition data, BgNav: unit not given here; conditions: 1 µM
# Excerpt: as §1, §2, §3
# Kv1.3 = experiment: TEVC inhibition, Kv1.3; type: cell-based, human; design: unit not given here; conditions: 1 µM
# Excerpt: as §1, §2, §3
# rKv1.2 = experiment: TEVC inhibition, Kv1.2; type: cell-based, rat; conditions: 1 µM
# Excerpt: as §1, §2, §3
# mNav1.6 = experiment: TEVC inhibition, Nav1.6; type: cell-based, mouse; conditions: 1 µM, Xenopus oocytes, ND96, 18–22 °C, mean ± SEM, n ≥ 3
# Excerpt: as §4, §5
Sequence,"Inhibition data, Kv4.2 (rKv4.2; replicate 1)","Inhibition data, Kv4.2 (rKv4.2; replicate 2)","Inhibition data, Kv4.2 (rKv4.2; replicate 3)","Inhibition data, Kv4.2 (rKv4.2; replicate 4)","Inhibition data, Kv1.6 (rKv1.6; replicate 1)","Inhibition data, Kv1.6 (rKv1.6; replicate 2)","Inhibition data, Kv1.6 (rKv1.6; replicate 3)","Inhibition data, Cav3.3 (hCav3.3; replicate 1)","Inhibition data, Cav3.3 (hCav3.3; replicate 2)","Inhibition data, Cav3.3 (hCav3.3; replicate 3)","Inhibition data, Cav3.3 (hCav3.3; replicate 4)",inhibition of voltage-gated potassium channels [1],inhibition at 1 µM (hERG1 (Kv11.1)) [%],"Inhibition data, Cav3.1 (hCav3.1; replicate 1)","Inhibition data, Cav3.1 (hCav3.1; replicate 2)","Inhibition data, Cav3.1 (hCav3.1; replicate 3)","Inhibition data, Cav3.1 (hCav3.1; replicate 4)","Inhibition data, Kv1.4 (rKv1.4; replicate 1)","Inhibition data, Kv1.4 (rKv1.4; replicate 2)","Inhibition data, Kv1.4 (rKv1.4; replicate 3)",also measured
"RLFCIRHHKYCGHRPKRCCSGLFCRCNTFGTNCRCQSKGALGKLI (disulfide 4-19, 11-24, 18-35, 26-33) [xib1]",0.0,0.0,0.0,0.0,80.8,59.7,81.8,0.0,0.0,0.0,0.0,potent inhibition,0,0.0,0.0,0.0,0.0,0.0,0.0,0.0,"Inhibition data, Kv1.6 (rKv1.6; replicate 4): 80.2; Inhibition data, Kv1.4 (rKv1.4; replicate 4): 0.0; inhibition of BgNav (BgNav): targeted; Inhibition data, BgNav (BgNav; replicate 1): 10.1; Inhibition data, BgNav (BgNav; replicate 2): 7.7; Inhibition data, BgNav (BgNav; replicate 3): 7.6; Inhibition data, BgNav (BgNav; replicate 4): 7.6; Inhibition data, Kv1.3 (Kv1.3; replicate 1): 59.5; Inhibition data, Kv1.3 (Kv1.3; replicate 2): 65.4; Inhibition data, Kv1.3 (Kv1.3; replicate 3): 60.6; Inhibition data, Kv1.3 (Kv1.3; replicate 4): 62.3; inhibition of Kv1.2 (rKv1.2; Xenopus oocytes, ND96, 18–22 °C, mean ± SEM, n ≥ 3): 50.2 ± 2.6%; Inhibition data, Kv1.2 (rKv1.2; replicate 1): 52.8; Inhibition data, Kv1.2 (rKv1.2; replicate 2): 47.6; Inhibition data, Kv1.2 (rKv1.2; replicate 3): 48.2; Inhibition data, Kv1.2 (rKv1.2; replicate 4): 46.0; inhibition of Nav1.6 (mNav1.6): 5.7 ± 1.2%"
"KRSCIRRFGRCDHRPNDCCYNSSCRCNLWGSNCRCQRMGLFQKWGK (disulfide 4-19, 11-24, 18-35, 26-33) [xib13]",0.0,0.0,0.0,0.0,81.2,87.8,79.9,0.0,0.0,0.0,0.0,potent inhibition; also recorded: most significant inhibition rates,0,0.0,0.0,0.0,0.0,0.0,0.0,0.0,"Inhibition data, Kv1.4 (rKv1.4; replicate 4): 0.0; inhibition of BgNav (BgNav): targeted; Inhibition data, BgNav (BgNav; replicate 1): 51.7; Inhibition data, BgNav (BgNav; replicate 2): 40.6; Inhibition data, BgNav (BgNav; replicate 3): 30.9; Inhibition data, BgNav (BgNav; replicate 4): 44.2; Inhibition data, Kv1.3 (Kv1.3; replicate 1): 61.2; Inhibition data, Kv1.3 (Kv1.3; replicate 2): 57.8; Inhibition data, Kv1.3 (Kv1.3; replicate 3): 41.4; Inhibition data, Kv1.3 (Kv1.3; replicate 4): 53.4; Inhibition data, Kv1.2 (rKv1.2; replicate 1): 58.6; Inhibition data, Kv1.2 (rKv1.2; replicate 2): 71.3; Inhibition data, Kv1.2 (rKv1.2; replicate 3): 77.9; inhibition of Nav1.6 (mNav1.6): 10.7 ± 0.9%"
